Counter-ions that a name gives are not always drawn.

In the first assay the target is T1, SCD (rat liver microsome) (Rattus norvegicus, UniProt P07308).
T1 construct: an enzyme reaction using rat liver microsome (20 μg) was performed for 15 min; from tissue; host or cells: rat liver microsome fraction
T1 sequence (P07308 1-358): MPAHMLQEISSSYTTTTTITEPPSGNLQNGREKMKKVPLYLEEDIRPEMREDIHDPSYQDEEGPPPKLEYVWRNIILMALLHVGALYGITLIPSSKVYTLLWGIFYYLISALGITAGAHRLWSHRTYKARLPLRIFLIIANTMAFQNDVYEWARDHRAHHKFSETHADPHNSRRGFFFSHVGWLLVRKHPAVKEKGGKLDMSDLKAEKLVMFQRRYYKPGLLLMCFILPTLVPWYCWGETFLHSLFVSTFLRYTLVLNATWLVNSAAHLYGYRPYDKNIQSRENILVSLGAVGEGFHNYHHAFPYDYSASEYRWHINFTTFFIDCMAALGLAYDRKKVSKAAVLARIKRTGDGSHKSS
Briefly: Measurement of SCD inhibitory activity using microsome (TLC detection system). Format: biochemical. As to conditions: test compound 10 μM; rat liver microsome (20 μg), [14C] stearoyl-CoA, 15 min. As to the method: “Test Method” Measurement of SCD Inhibitory Activity Using Microsome (TLC Detection System)
A test compound (10 mM) diluted with DMSO in advance was secondarily diluted to 3/1000 with 3× buffer (300 mmol/L NaH2PO4 [pH 7.4], 450 mM KCl, 30 mM NaF, 9 mM MgCl2, 4.5 mM glutathione [reduced form], 0.3% BSA [fatty acid free, SIGMA]). The test compound (10 μL) diluted with the assay buffer was dispensed to a PP 96-deep well block, and a microsome fraction (10 μL) diluted with a microsome buffer was added thereto. The enzyme reaction was started by the addition of 10 μL of [^14C] stearoyl-CoA (American Radiolabeled Chemicals [ARC], Inc.) diluted to 10 μCi/mL with 9 mmol/L NADH. For evaluation of the compound, an enzyme reaction using rat liver microsome (20 μg) was performed for 15 min. The reaction was quenched by the addition of 10 μL of 2.5N NaOH, a plate seal was applied, and the reaction mixture was incubated overnight in a dry heater set to 65° C. to allow saponification. Solvent extraction of fatty acid was based on the Bligh&Dyer method (1). Formic acid:methanol:chloroform (1:6:3) (200 μL) was added, the state of single layer was maintained, the mixture was sufficiently stirred, and pure water (120 μL) was added to allow separation into two layers. The lower chloroform layer (10 μL) was spotted on reversed-phase TLC plate (RP-18, 1154230001, Merck Japan, Ltd.) and developed with acetonitrile:pure water:acetic acid (95:4.5:0.5). The TLC plate was dried and transferred onto an Imaging Plate (Fuji Photo Film Co., Ltd.) for not less than 5 hr. For detection, BAS-5000 (Fuji Photo Film Co., Ltd) was used and the obtained spot images were converted to numerical values using Multi Gauge Ver2.3 (Fuji Photo Film Co., Ltd), based on which the SCD activity inhibitory rate (%) was determined.
As for `CCc1cccc(NC(=O)N2CCOC(COc3cc(F)ccc3Cl)C2)n1` (centres unmarked) [Example 202, 2-[(2-chloro-5-fluorophenoxy)methyl]-N-(6-ethylpyridin-2-yl) morpholine-4-carboxamide], the “SCD activity inhibitory rate (%)” value is recorded as 92%.

The assay is the same for the next values; noted with them: test compound 10 μM; rat liver microsome (20 μg), [14C] stearoyl-CoA, 15 min; read-out: SCD activity inhibitory rate (%).
On to `Cc1cc(C)nc(NC(=O)N2CCOC(COc3ccccc3F)C2)c1` (centres unmarked) [Example 59, N-(4,6-dimethylpyridin-2-yl)-2-[(2-fluorophenoxy)methyl]morpholine-4-carboxamide trifluoroacetate], for which the inhibition at 10 µM stood at 88%.

Consider `NC(=O)c1ccsc1NC(=O)c1cccc(COc2cc(Cl)ccc2Cl)c1` [Example 93, 2-({3-[(2,5-dichlorophenoxy)methyl]benzoyl}amino)thiophene-3-carboxamide], for which the inhibition at 10 µM stood at 83%.

On to `O=C(Nc1cnn(Cc2ccc(F)cc2)c1)c1ccc(Cn2cnc3ccccc32)cc1` [Example 99, 4-(1H-benzimidazol-1-ylmethyl)-N-[1-(4-fluorobenzyl)-1H-pyrazol-4-yl]benzamide], for which the inhibition at 10 µM stood at 93%.

As for `Cc1cc(C)nc(NC(=O)c2ccc(Cn3cnc4ccccc43)cc2)c1` [Example 108, 4-(1H-benzimidazol-1-ylmethyl)-N-(4,6-dimethylpyridin-2-yl)benzamide], the inhibition at 10 µM was determined as 97%.

For `Cc1cc(C)nc(NC(=O)c2cc(COc3cc(Cl)ccc3Cl)ccn2)c1` [Example 113, 4-[(2,5-dichlorophenoxy)methyl]-N-(4,6-dimethylpyridin-2-yl)pyridine-2-carboxamide], the inhibition at 10 µM is 86%.

With `O=C(Nc1ccc(Cn2cccn2)cc1)c1ccnc(COc2cc(Cl)ccc2Cl)c1` [Example 116, 2-[(2,5-dichlorophenoxy)methyl]-N-[4-(1H-pyrazol-1-ylmethyl)phenyl]isonicotinamide], the inhibition at 10 µM was 100%.

As for `Cc1nn(Cc2ccccc2)c2sc(C(=O)Nc3ccc(Cn4cccn4)cc3)cc12` [Example 118, 1-benzyl-3-methyl-N-[4-(1H-pyrazol-1-ylmethyl)phenyl]-1H-thieno[2,3-c]pyrazole-5-carboxamide], the inhibition at 10 µM is 86%.

In the case of `O=C(Nc1cnn(Cc2ccc(F)cc2)c1)c1cccc(COc2ccccc2)c1` [Example 149, N-[1-(4-fluorobenzyl)-1H-pyrazol-4-yl]-3-(phenoxymethyl)benzamide], the inhibition at 10 µM turned out to be 97%.

On to `O=C(Nc1ccc(Cn2cccn2)cc1)N1CCCC(COc2cc(Cl)ccc2Cl)C1` (centres unmarked) [Example 167, 3-[(2,5-dichlorophenoxy)methyl]-N-[4-(1H-pyrazol-1-ylmethyl)phenyl]piperidine-1-carboxamide], for which the inhibition at 10 µM turned out to be 85%.

Regarding `O=C(Nc1cnn(CCO)c1)c1cc(COc2ccccc2Cl)ccn1` [Example 169, 4-[(2-chlorophenoxy)methyl]-N-[1-(2-hydroxyethyl)-1H-pyrazol-4-yl]pyridine-2-carboxamide], the inhibition at 10 µM worked out at 88%.

Turning to `O=C(Nc1cnn(Cc2ccc(F)cc2)c1)c1cccc(CNc2ccccc2Cl)c1` [Example 201, 3-{[(2-chlorophenyl)amino]methyl}-N-[1-(4-fluorobenzyl)-1H-pyrazol-4-yl]benzamide], the inhibition at 10 µM was determined as 99%.

Regarding `O=C(Nc1ccc(CO)cn1)N1CCOC(COc2cc(F)ccc2Cl)C1` (centres unmarked) [Example 212, 2-[(2-chloro-5-fluorophenoxy)methyl]-N-[5-(hydroxymethyl)pyridin-2-yl]morpholine-4-carboxamide], the inhibition at 10 µM was determined as 97%.

With `CN(Cc1cccc(C(=O)Nc2cnn(Cc3ccc(F)cc3)c2)c1)c1ccccc1Cl` [Example 225, 3-{[(2-chlorophenyl)(methyl)amino]methyl}-N-[1-(4-fluorobenzyl)-1H-pyrazol-4-yl]benzamide], the inhibition at 10 µM came to 93%.

The values above are taken from US20090325956A1, “Aromatic amine derivative and use thereof” (priority 2006, published 2009).
